Legend:
[1] = system: inner ear spheres made from Math1-nGFP mice; assay: Hair cell differentiation from utricular spheres of neonatal Math1-nGFP reporter mice; format: cell-based, mouse; details: compared with DAPT, L-685458, MDL28170; normalized to DMSO
Method: The utricles and cochleae of 1- to 3-d-postnatal mice of both sexes were dissected, and after careful removal of the nerve trunk and mesenchymal tissues, were trypsinized and dissociated. Dissociated cells were centrifuged, and the pellet was resuspended and filtered through a 70 μm cell strainer (BD Biosciences Discovery Labware) in DMEM/F12 medium with N2/B27 supplement, EGF (20 ng/ml), IGF1 (50 ng/ml), bFGF (10 ng/ml), and heparan sulfate (50 ng/ml) (Sigma). The single cells were cultured in nonadherent Petri dishes (Greiner Bio-One) to initiate clonal growth of spheres (49). Spheres that formed after 2-3 d in culture were passaged every 4-6 d. […]
Cell counting for spheres was performed with MetaMorph software. The cell number was determined from DAPI- or Hoechst-positive nuclei. […] For explants, inner hair cells, outer hair cells, and supporting cells in the outer hair cell region were counted on cochlear whole mounts. […] High-power images of the full-length cochlea or cochlear explant cultures were assembled and analyzed in PhotoShop CS4 (Adobe). ImageJ software (NIH) was used to measure the total length of cochlear whole mounts and the length of individual counted segments. The total number of inner hair cells, outer hair cells, and supporting cells in the outer hair cell region was counted in each of four cochlear segments of 1200-1400 μm (apical, mid-apical, mid-basal, and basal). […]

[2] = system: deafened ears; assay: ABR and DPOAE in deafened ears after round window administration; format: in vivo, mouse
Method: 4-week-old mice were exposed free-field, awake and unrestrained, in a small reverberant chamber (22). Acoustic trauma was produced by a 2 h exposure to an 8-16 kHz octave band noise presented at 116 dB SPL. The exposure stimulus was generated by a custom white-noise source, filtered (Brickwall Filter with a 60 dB/octave slope), amplified (Crown power amplifier), and delivered (JBL compression driver) through an exponential horn fitted securely to a hole in the top of a reverberant box.
4-week-old mice weighing 12 to 16 g were used. Before surgery, the animals were anesthetized with ketamine (20 mg/kg, i.p.) and xylazine (100 mg/kg, i.p.), and an incision was made posterior to the pinna near the external meatus after local administration of lidocaine (1%). The otic bulla was opened to approach the round window niche. The end of a piece of PE 10 tubing (Becton Dickinson) was drawn to a fine tip in a flame and gently inserted into the round window niche. LY411575 was dissolved in DMSO and diluted 10-fold in polyethylene glycol 400 (Sigma) to a final concentration of 4 mM. This solution (total volume 1 μl) was injected into the round window niche of the left ear. Polyethylene glycol 400 with 10% DMSO was injected into the right ear as a control. The solution was administered for 2 min. This approach is presently used clinically (e.g. transtympanic injection of steroids for sudden hearing loss and gentamicin for severe balance disorders) and has the advantage of sparing the […] but still taking advantage of the local route provided by the round window membrane for delivery of drug into the inner ear (50). Gelatin was placed on the niche to maintain the solution, and the wound was closed.
Auditory brain stem responses (51, 52) were measured in each animal at 7 log-spaced frequencies (half-octave steps from 5.6 to 45.2 kHz) before and 1 d after noise exposure, and 1-week, 1-month, and 3-months after surgery. Mice were anesthetized with ketamine (100 mg/kg i.p.) and xylazine (20 mg/kg i.p.). Needle electrodes were inserted at vertex and pinna, with a ground near the tail. ABRs were evoked with 5-ms tone pips (0.5-ms rise-fall with a cos^2 onset envelope delivered at 35/s). The response was amplified, filtered and averaged in a LabVIEW-driven data-acquisition system. Sound level was raised in 5 dB steps from ≥10 dB below threshold <80 dB SPL. At each sound level, 1024 responses were averaged (with stimulus polarity alternated), using an “artifact reject,” whereby response waveforms were discarded when peak-to-peak response amplitude exceeded 15 μV. […] For amplitude versus level functions, the wave I peak was identified by visual inspection at each sound level and the peak-to-peak amplitude computed.

C[C@H](NC(=O)[C@@H](O)c1cc(F)cc(F)c1)C(=O)N[C@@H]1C(=O)N(C)c2ccccc2-c2ccccc21 [LY411575, N-2((2S)-2-(3,5-difluorophenyl)-2-hydroxyethanoyl)-N1-((7S)-5-methyl-6-oxo-6,7-dihydro-5H-dibenzo[b,d]azepin-7-yl)-l-alaninamide]
potency for hair cell induction (nGFP-positive cells to DAPI-positive cells) among the four γ-secretase inhibitors [1]: highest potency
ABR wave I amplitudes ([2]; 8, 11.33 and 16 kHz, 3 months): increased
ABR threshold recoveries ([2]; 8, 11.33 and 16 kHz, 3 months after treatment vs 1 d after noise): significantly greater than control
sound level at which the ABR peak could first be detected ([2]; 8 kHz, 3 months after treatment, example mouse, control side 75 dB): 65 dB
ABR threshold recoveries at high frequencies ([2]; frequencies above 22.65 kHz, either ear): No threshold recoveries
recoveries above the noise floor of DPOAE ([2]; mouse, in vivo): no recoveries

Source: patent US12161647B2, “Treating hearing loss” (Massachusetts Eye and Ear Infirmary, priority 2012, dated 2024)
